Literature values in US11717498B2, “Methods of treatment using amphetamine controlled release, prodrug, and abuse deterrent dosage forms” (CHEMAPOTHECA, LLC, priority 2013, dated 2023).

Settings: l-form versus d-form

SMILES: CC(C)NC[C@H](O)COc1cccc2ccccc12 [l-form of propranolol, propranolol]
- potency relative to the d-form: about 100 times
